Assay: Non-specific drug binding (NSB) to 96-well plates, drug in phosphate buffer
Type: physicochemical
Conditions: time course study on PP and PTFE plates using LC-MS (data not shown)
Experimental: The drug NSB (10 nM drug in phosphate buffer) to other 96-well plates made from different plastics was also tested.

SMILES	drug NSB, dependence on plate material
CC(=O)O[C@H]1C(=O)[C@@]2(C)[C@H]([C@H](OC(=O)c3ccccc3)[C@]3(O)C[C@H](OC(=O)[C@H](O)[C@@H](NC(=O)c4ccccc4)c4ccccc4)C(C)=C1C3(C)C)[C@]1(OC(C)=O)CO[C@@H]1C[C@@H]2O [taxol]	independent of plate material
C[C@]12CC[C@H]3[C@@H](CCC4=CC(=O)CC[C@@]43C)[C@@H]1CC[C@@H]2O [testosterone]	independent of plate material

Reference: patent publication US20080193913A1, “Diluent, methods of manufacture and use” (Millipore Corporation, priority 2002, published 2008)
